The subject of the assay is BDF1 mice, P388 leukemia ip, median survival T/C. As to the kind of experiment: NCI In Vivo Anticancer Drug Screen. Data for tumor model P388 Leukemia (intraperitoneal) in B6D2F1 (BDF1) mice. Particulars: endpoint: median survival time, higher = longer survival. The method, boiled down:
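Mice carrying the transplantable tumour receive compound or vehicle. Survival is followed in each arm, and the treated measure is divided by the vehicle measure.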

Several values for one entry are separate records, joined by “and”; a condition that tells them apart may be missing. Equal entries are not always repeated. Inconclusive results and toxic doses are left out.

Turning to `O=C1NC(C2CCC3CN32)C(=O)NC1C1CCC2CN21` (stereo not drawn), the T/C (dose: 0.05 mg/kg/injection, schedule: Q01DX009 (ip), vehicle: saline) is 91 % of control and 118 % of control; the T/C (dose: 0.1 mg/kg/injection, schedule: Q01DX009 (ip), vehicle: saline) is 96 % of control; the T/C (dose: 0.2 mg/kg/injection, schedule: Q01DX009 (ip), vehicle: saline) was 107 % of control; the T/C (dose: 0.8 mg/kg/injection, schedule: Q01DX009 (ip), vehicle: saline) is 164 % of control and 173 % of control.
Take `Cc1ccc(Cc2c(C=O)nc(N)[nH]c2=O)c2ccccc12`: the T/C reads like this: (dose: 12.5 mg/kg/injection, schedule: Q01DX009 (ip), vehicle: saline with Tween-80) 112 % of control; (dose: 25.0 mg/kg/injection, schedule: Q01DX009 (ip), vehicle: saline with Tween-80) 96 % of control; (dose: 50.0 mg/kg/injection, schedule: Q01DX009 (ip), vehicle: saline with Tween-80) 102 % of control; (dose: 50.0 mg/kg/injection, schedule: Q01DX009 (ip), vehicle: suspension in saline) 97 % of control; (dose: 100.0 mg/kg/injection, schedule: Q01DX009 (ip), vehicle: suspension in saline) 94 % of control; (dose: 200.0 mg/kg/injection, schedule: Q01DX009 (ip), vehicle: suspension in saline) 106 % of control.
In the case of `NC(N)=N/N=C\c1c2ccccc2cc2ccccc12`, the T/C reads like this: (dose: 3.13 mg/kg/injection, schedule: Q01DX009 (ip), vehicle: other) 155 % of control; (dose: 6.25 mg/kg/injection, schedule: Q01DX009 (ip), vehicle: other) 155 % of control; (dose: 12.5 mg/kg/injection, schedule: Q01DX009 (ip), vehicle: other) 157 % of control.
Regarding `Cn1c(CC(O)(C(F)(F)F)C(F)(F)F)cc2ccccc21`, the T/C is, setting by setting: (dose: 100.0 mg/kg/injection, schedule: Q01DX001 (ip), vehicle: other) 87 % of control; (dose: 400.0 mg/kg/injection, schedule: Q01DX001 (ip), vehicle: other) 95 % of control.
Consider `O=C1/C(=C\c2ccccc2)OC(c2ccccc2)O/C1=C/c1ccccc1` (stereo not drawn), for which the T/C reads like this: (dose: 50.0 mg/kg/injection, schedule: Q01DX009 (ip), vehicle: saline) 108 % of control; (dose: 100.0 mg/kg/injection, schedule: Q01DX009 (ip), vehicle: saline) 95 % of control; (dose: 100.0 mg/kg/injection, schedule: Q04DX003 (ip), vehicle: saline) 120 % of control; (dose: 200.0 mg/kg/injection, schedule: Q01DX009 (ip), vehicle: saline) 97 % of control; (dose: 200.0 mg/kg/injection, schedule: Q04DX003 (ip), vehicle: saline) 117 % of control; (dose: 400.0 mg/kg/injection, schedule: Q04DX003 (ip), vehicle: saline) 114 % of control.
For `COc1cc(O)c2c(c1)C(=O)c1cc3c(c(O)c1C2=O)C(OC1OC(C)C(O)C(O)C1OC)C(OC)C(C)(O)C3=O` (stereo not drawn), the T/C runs as follows: (dose: 25.9 mg/kg/injection, schedule: Q01DX009 (ip), vehicle: Klucel (hydroxypropylcellulose) (HPC)) 116 % of control; (dose: 37.5 mg/kg/injection, schedule: Q01DX010 (ip), vehicle: carboxymethylcellulose (CMC)) 150 % of control; (dose: 37.5 mg/kg/injection, schedule: Q01DX010 (ip), vehicle: saline) 111 % of control and 115 % of control; (dose: 43.2 mg/kg/injection, schedule: Q01DX009 (ip), vehicle: Klucel (hydroxypropylcellulose) (HPC)) 121 % of control; (dose: 75.0 mg/kg/injection, schedule: Q01DX010 (ip), vehicle: carboxymethylcellulose (CMC)) 165 % of control; (dose: 75.0 mg/kg/injection, schedule: Q01DX010 (ip), vehicle: saline) 120 % of control and 122 % of control. The T/C reads like this: (dose: 108.0 mg/kg/injection, schedule: Q04DX003 (ip), vehicle: Klucel (hydroxypropylcellulose) (HPC)) 114 % of control; (dose: 120.0 mg/kg/injection, schedule: Q01DX009 (ip), vehicle: Klucel (hydroxypropylcellulose) (HPC)) 106 % of control; (dose: 180.0 mg/kg/injection, schedule: Q04DX003 (ip), vehicle: Klucel (hydroxypropylcellulose) (HPC)) 110 % of control; (dose: 300.0 mg/kg/injection, schedule: Q04DX003 (ip), vehicle: Klucel (hydroxypropylcellulose) (HPC)) 99 % of control; (dose: 500.0 mg/kg/injection, schedule: Q04DX003 (ip), vehicle: Klucel (hydroxypropylcellulose) (HPC)) 97 % of control.
`COc1ccc(C(=O)C(C)C=O)c(OCc2ccccc2)c1OC` (stereo not drawn): the T/C was 95 % of control (dose: 100.0 mg/kg/injection, schedule: Q01DX009 (ip), vehicle: saline with Tween-80); 104 % of control (dose: 100.0 mg/kg/injection, schedule: Q04DX003 (ip), vehicle: saline with Tween-80); 113 % of control (dose: 200.0 mg/kg/injection, schedule: Q01DX009 (ip), vehicle: saline with Tween-80); 113 % of control (dose: 200.0 mg/kg/injection, schedule: Q04DX003 (ip), vehicle: saline with Tween-80); 90 % of control (dose: 400.0 mg/kg/injection, schedule: Q04DX003 (ip), vehicle: saline with Tween-80).
In the case of `Cc1cc(C)c2cc3cccc[n+]3cc2c1`, under “dose: 4.0 mg/kg/injection, schedule: Q01DX010 (ip), vehicle: carboxymethylcellulose (CMC)”, the T/C was 115 % of control.

These data come from PubChem BioAssay AID328 (DTP/NCI, 2004).
